For orientation: IC50 means the midpoint of a concentration-inhibition curve. Read a high IC50 as weaker potency in that assay.

Molecules are shown by their SMILES. Bounds are passed on as bounds.

T1 sequence (O75417 1-899): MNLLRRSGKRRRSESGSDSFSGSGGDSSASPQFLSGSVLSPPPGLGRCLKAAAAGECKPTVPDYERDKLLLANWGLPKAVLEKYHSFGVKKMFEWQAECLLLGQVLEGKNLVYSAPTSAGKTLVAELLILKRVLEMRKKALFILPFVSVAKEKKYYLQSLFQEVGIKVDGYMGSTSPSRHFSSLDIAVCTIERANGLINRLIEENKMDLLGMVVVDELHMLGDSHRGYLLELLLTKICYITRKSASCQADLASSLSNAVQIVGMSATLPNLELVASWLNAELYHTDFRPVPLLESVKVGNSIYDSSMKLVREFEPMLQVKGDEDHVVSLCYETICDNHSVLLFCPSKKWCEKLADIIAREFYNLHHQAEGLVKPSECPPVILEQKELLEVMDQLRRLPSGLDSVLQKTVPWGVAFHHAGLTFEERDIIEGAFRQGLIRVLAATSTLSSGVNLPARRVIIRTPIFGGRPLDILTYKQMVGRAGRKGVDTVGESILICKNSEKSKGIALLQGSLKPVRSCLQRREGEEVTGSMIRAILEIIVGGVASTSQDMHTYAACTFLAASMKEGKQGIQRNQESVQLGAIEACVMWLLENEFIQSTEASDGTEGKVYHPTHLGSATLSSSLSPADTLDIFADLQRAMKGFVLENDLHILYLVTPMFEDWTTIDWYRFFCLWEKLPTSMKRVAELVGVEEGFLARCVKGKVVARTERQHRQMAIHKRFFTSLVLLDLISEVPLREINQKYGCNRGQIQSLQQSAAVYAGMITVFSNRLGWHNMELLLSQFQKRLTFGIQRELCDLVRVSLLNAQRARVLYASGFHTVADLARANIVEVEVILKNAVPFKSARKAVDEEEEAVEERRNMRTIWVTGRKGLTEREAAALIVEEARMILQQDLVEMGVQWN

One experiment has as its target T1, Pol theta (1-899) (Homo sapiens, UniProt O75417).
T1 construct: Pol theta (1-899) (5 nM) in assay buffer
In words: Pol theta ATPase activity, NADH oxidation-coupled enzymatic assay (ATPase NADH coupling: Standard Screening: hPolQ). Format: biochemical. As to conditions: Pol theta (1-899) 5 nM, NADH oxidation-coupled ATPase assay; compounds of Table 3. In a few lines: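 Rates of ATP hydrolysis taken from 60-min A340 traces of NADH oxidation via PK/LDH coupling, then fit four-parameter for IC50, Hill slope and max inhibition. Enzyme (5 nM, 1-899) and compounds preincubated 15 min before ATP 100 μM and 50-thymine ssDNA 300 nM (stock, equal volume added).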
`COc1cnc(Cl)cc1-c1cc(C)ncc1C(=O)Nc1nnc(O[C@H]2CO[C@H]3[C@@H]2OC[C@H]3O)s1` [Example 237, 2′-chloro-N-(5-(((3S,3aR,6R,6aR)-6-hydroxyhexahydrofuro[3,2-b]furan-3-yl)oxy)-1,3,4-thiadiazol-2-yl)-5′-methoxy-6-methyl-[4,4′-bipyridine]-3-carboxamide] showed an IC50 of no more than 200 nM.

The compound `COc1cnc(Cl)cc1-c1cc(C)ncc1C(=O)Nc1nnc(O[C@H]2CO[C@H]3[C@@H]2OC[C@H]3O[N+](=O)[O-])s1` [Example 238, (3R,3aS,6S,6aR)-6-((5-(2′-chloro-5′-methoxy-6-methyl-[4,4′-bipyridine]-3-carboxamido)-1,3,4-thiadiazol-2-yl)oxy)hexahydrofuro[3,2-b]furan-3-yl nitrate] showed an IC50 of no more than 200 nM.

`COc1cnc(C)cc1-c1cc(C)ncc1C(=O)Nc1nnc(OC2CC=CC2)s1` [Example 240, N-(5-(cyclopent-3-en-1-yloxy)-1,3,4-thiadiazol-2-yl)-5′-methoxy-2′,6-dimethyl-[4,4′-bipyridine]-3-carboxamide] registered a concentration for half-maximal inhibition (IC50) of no more than 200 nM.

With `COc1cnc(C)cc1-c1cc(C)ncc1C(=O)Nc1nnc(OC(C)COCC(F)(F)F)s1` (stereo not shown) [Example 241, 5′-methoxy-2′,6-dimethyl-N-(5-((1-(2,2,2-trifluoroethoxy)propan-2-yl)oxy)-1,3,4-thiadiazol-2-yl)-[4,4′-bipyridine]-3-carboxamide], the IC50 was no more than 200 nM.

Consider `COc1cc(C(=O)Nc2nnc(OC)s2)c(-c2cc(Cl)ncc2OC)cn1` [Example 242, 2′-chloro-5′,6-dimethoxy-N-(5-methoxy-1,3,4-thiadiazol-2-yl)-[3,4′-bipyridine]-4-carboxamide], for which the IC50 was no more than 200 nM.

In turn, `COc1cnc(C)c(F)c1-c1cc(C)ncc1C(=O)Nc1nnc(O[C@H]2CO[C@H]3OCC[C@H]32)s1` [Example 243, 3′-fluoro-N-(5-(((3R,3aS,6aR)-hexahydrofuro[2,3-b]furan-3-yl)oxy)-1,3,4-thiadiazol-2-yl)-5′-methoxy-2′,6-dimethyl-[4,4′-bipyridine]-3-carboxamide] gave an IC50 of no more than 200 nM.

Compound `COc1cnc(Cl)c(F)c1-c1cc(C)ncc1C(=O)Nc1nnc(O[C@H]2CC[C@@H](CO)CC2)s1` [Example 245, 2′-chloro-3′-fluoro-N-(5-(((1s,4s)-4-(hydroxymethyl)cyclohexyl)oxy)-1,3,4-thiadiazol-2-yl)-5′-methoxy-6-methyl-[4,4′-bipyridine]-3-carboxamide] gave an IC50 of no more than 200 nM.

Turning to `COc1cnc(C)cc1-c1cc(C)ncc1C(=O)Nc1nnc(O[C@H]2COC[C@@H]2OC(C)C)s1` [Example 246], the IC50 is no more than 200 nM.

Turning to `COc1cnc(Cl)cc1-c1cc(C)ncc1C(=O)Nc1nnc(OC2CCCN(C3CCOC3)C2)s1` (stereo not shown) [Example 247, 2′-chloro-5′-methoxy-6-methyl-N-(5-((1-(tetrahydrofuran-3-yl)piperidin-3-yl)oxy)-1,3,4-thiadiazol-2-yl)-[4,4′-bipyridine]-3-carboxamide], the IC50 was no more than 200 nM.

For the compound `COc1nnc(NC(=O)c2ccc(C#N)cc2-c2cc(Cl)ncc2OC)s1` [Example 248, 2-(2-chloro-5-methoxypyridin-4-yl)-4-cyano-N-(5-methoxy-1,3,4-thiadiazol-2-yl)benzamide], the IC50 was no more than 200 nM.

The compound `COc1cnc(C)cc1-c1cc(C)ncc1C(=O)Nc1nnc(OC2COCC2NCC2CC2)s1` (stereo not shown) [Example 249, N-(5-((4-((cyclopropylmethyl)amino)tetrahydrofuran-3-yl)oxy)-1,3,4-thiadiazol-2-yl)-5′-methoxy-2′,6-dimethyl-[4,4′-bipyridine]-3-carboxamide] showed a concentration for half-maximal inhibition (IC50) of no more than 200 nM.

`COc1cnc(Cl)cc1-c1cc(C)ncc1C(=O)Nc1nnc(OC2CCCN(C3COC3)C2)s1` (stereo not shown) [Example 250, 2′-chloro-5′-methoxy-6-methyl-N-(5-((1-(oxetan-3-yl)piperidin-3-yl)oxy)-1,3,4-thiadiazol-2-yl)-[4,4′-bipyridine]-3-carboxamide] gave an IC50 of no more than 200 nM.

Take `COc1cnc(C)c(F)c1-c1cc(C)ncc1C(=O)Nc1nnc(O[C@H]2CC[C@@H](CO)CC2)s1` [Example 257, 3′-fluoro-N-(5-(((1s,4s)-4-(hydroxymethyl)cyclohexyl)oxy)-1,3,4-thiadiazol-2-yl)-5′-methoxy-2′,6-dimethyl-[4,4′-bipyridine]-3-carboxamide]: the IC50 was no more than 200 nM.

Compound `COc1cnc(C)c(F)c1-c1cc(C)ncc1C(=O)Nc1nnc(OCCN(C)CC(F)(F)F)s1` [Example 258, 3′-fluoro-5′-methoxy-2′,6-dimethyl-N-(5-(2-(methyl(2,2,2-trifluoroethyl)amino)ethoxy)-1,3,4-thiadiazol-2-yl)-[4,4′-bipyridine]-3-carboxamide] displayed a half-maximal inhibitory concentration (IC50) of no more than 200 nM.

Turning to `COc1nnc(NC(=O)c2ccncc2-c2cc(Cl)ncc2OC)s1` [Example 259, 2′-chloro-5′-methoxy-N-(5-methoxy-1,3,4-thiadiazol-2-yl)-[3,4′-bipyridine]-4-carboxamide], the IC50 was no more than 200 nM.

Regarding `COc1cnc(Cl)cc1-c1cc(C)ncc1C(=O)Nc1nnc(O[C@H]2CO[C@H]3OCC[C@H]32)s1` [Example 262, 2′-chloro-N-(5-(((3R,3aS,6aR)-hexahydrofuro[2,3-b]furan-3-yl)oxy)-1,3,4-thiadiazol-2-yl)-5′-methoxy-6-methyl-[4,4′-bipyridine]-3-carboxamide], the IC50 is no more than 200 nM.

Compound `COc1cnc(Cl)cc1-c1cc(C)ncc1C(=O)Nc1nnc(O[C@@H]2CCCN([C@@H]3CCOC3)C2)s1` [Example 264, 2′-chloro-5′-methoxy-6-methyl-N-(5-(((R)-1-((R)-tetrahydrofuran-3-yl)piperidin-3-yl)oxy)-1,3,4-thiadiazol-2-yl)-[4,4′-bipyridine]-3-carboxamide] had a 50% inhibitory concentration (IC50) of no more than 200 nM.

As for `COc1nnc(NC(=O)c2cc(OC(F)F)ncc2-c2cc(Cl)ncc2OC)s1` [Example 265, 2′-chloro-6-(difluoromethoxy)-5′-methoxy-N-(5-methoxy-1,3,4-thiadiazol-2-yl)-[3,4′-bipyridine]-4-carboxamide], the IC50 was no more than 200 nM.

With `COc1nnc(NC(=O)c2ccc(F)cc2-c2cc(Cl)ncc2OC)s1` [Example 266, 2-(2-chloro-5-methoxypyridin-4-yl)-4-fluoro-N-(5-methoxy-1,3,4-thiadiazol-2-yl)benzamide], the IC50 was no more than 200 nM.

`COc1cnc(Cl)cc1-c1cc(C)ncc1C(=O)Nc1nnc(O[C@@H]2C[C@H](F)CN(C)C2)s1` [Example 267, 2′-chloro-N-(5-(((3R,5S)-5-fluoro-1-methylpiperidin-3-yl)oxy)-1,3,4-thiadiazol-2-yl)-5′-methoxy-6-methyl-[4,4′-bipyridine]-3-carboxamide]: the IC50 is no more than 200 nM.

Compound `COc1cnc(Br)cc1-c1cc(C)ncc1C(=O)Nc1nnc(O[C@H]2CC[C@@H](CO)CC2)s1` [Example 268, 2′-bromo-N-(5-(((1s,4s)-4-(hydroxymethyl)cyclohexyl)oxy)-1,3,4-thiadiazol-2-yl)-5′-methoxy-6-methyl-[4,4′-bipyridine]-3-carboxamide] had an IC50 of no more than 200 nM.

Compound `CCc1cc(C(=O)Nc2nnc(OC)s2)c(-c2cc(Cl)ncc2OC)cn1` [Example 270, 2′-chloro-6-ethyl-5′-methoxy-N-(5-methoxy-1,3,4-thiadiazol-2-yl)-[3,4′-bipyridine]-4-carboxamide] returned a 50% inhibitory concentration (IC50) of 200 to 500 nM.

Staying with this experiment, now noted: Table 5; Pol theta (1-899) 5 nM, ATP, dT50 ssDNA.
In the case of `COc1cnc(C)c(F)c1-c1cc(C)ncc1C(=O)Nc1nnc(OC2COC2)s1` [Example 204], the IC50 is no more than 200 nM.

Regarding `Cc1cc(-c2cc(Br)ncc2OC(F)F)c(C(=O)Nc2nnc(O[C@H]3CC[C@H](O)CC3)s2)cn1` [Example 205, 2′-bromo-5′-(difluoromethoxy)-N-(5-(((1r,4r)-4-hydroxycyclohexyl)oxy)-1,3,4-thiadiazol-2-yl)-6-methyl-(4,4′-bipyridine)-3-carboxamide], the IC50 is no more than 200 nM.

`COc1cnc(C)c(F)c1-c1cc(C)ncc1C(=O)Nc1nnc(O[C@@H]2CCOC2)s1` [Example 206]: the IC50 was no more than 200 nM.

`COc1cnc(Cl)c(F)c1-c1cc(C)ncc1C(=O)Nc1nnc(O[C@H]2CC[C@H](O)CC2)s1` [Example 211, 2′-chloro-3′-fluoro-N-(5-(((1r,4r)-4-hydroxycyclohexyl)oxy)-1,3,4-thiadiazol-2-yl)-5′-methoxy-6-methyl-(4,4′-bipyridine)-3-carboxamide] displayed an IC50 of no more than 200 nM.

Compound `COc1cnc(Cl)cc1-c1cc(COC2CC2)ncc1C(=O)Nc1nnc(O[C@@H]2CCOC2)s1` [Example 214, (R)-2′-chloro-6-(cyclopropoxymethyl)-5′-methoxy-N-(5-((tetrahydrofuran-3-yl)oxy)-1,3,4-thiadiazol-2-yl)-(4,4′-bipyridine)-3-carboxamide] returned an IC50 of no more than 200 nM.

With `COc1nnc(NC(=O)c2cnc(COC3CC3)cc2-c2cc(Cl)ncc2OC)s1` [Example 215, 2′-chloro-6-(cyclopropoxymethyl)-5′-methoxy-N-(5-methoxy-1,3,4-thiadiazol-2-yl)-(4,4′-bipyridine)-3-carboxamide], the IC50 is no more than 200 nM.

With `COc1nnc(NC(=O)c2cnc(C)cc2-c2cc(Cl)c([S+](C)[O-])cc2OC)s1` (stereo not shown) [Example 231, 4-(5-chloro-2-methoxy-4-(methylsulfinyl)phenyl)-N-(5-methoxy-1,3,4-thiadiazol-2-yl)-6-methylnicotinamide], the IC50 was no more than 200 nM.

The experiment is the same for the next values; noted with them: Table 5; values given as bound; Pol theta (1-899) 5 nM, ATP, dT50 ssDNA.
`COc1nnc(NC(=O)c2cn(-c3cc(Cl)ncc3OC)nn2)s1` [Example 234, 1-(2-chloro-5-methoxypyridin-4-yl)-N-(5-methoxy-1,3,4-thiadiazol-2-yl)-1H-1,2,3-triazole-4-carboxamide]: the half-inhibitory concentration (IC50) was greater than 10000 nM.

`COc1nnc(NC(=O)c2ccn(-c3cc(Cl)ncc3OC)n2)s1` [Example 235, 1-(2-chloro-5-methoxypyridin-4-yl)-N-(5-methoxy-1,3,4-thiadiazol-2-yl)-1H-pyrazole-3-carboxamide] came in with a half-maximal inhibitory concentration (IC50) greater than 10000 nM.

The values are drawn from patent US20240287080A1 (IDEAYA Biosciences Inc., priority 2021, published 2024).
